Measured values from ChEMBL document CHEMBL5528025, “Design, synthesis and biological evaluation of carbamate derivatives incorporating multifunctional carrier scaffolds as pseudo-irreversible cholinesterase inhibitors for the treatment of Alzheimer's disease” (Eur J Med Chem, 2024).
Calls of active or inactive are those of the source. No cut-off for these calls is given here.

Tests used:
Acetylcholinesterase = Acetylcholinesterase (Homo sapiens, UniProt P22303)
Description: Inhibition of human erythrocyte AChE incubated for 10 mins

Cholinesterase = Cholinesterase (Homo sapiens, UniProt P06276)
Chain of Cholinesterase (P06276 whole entry): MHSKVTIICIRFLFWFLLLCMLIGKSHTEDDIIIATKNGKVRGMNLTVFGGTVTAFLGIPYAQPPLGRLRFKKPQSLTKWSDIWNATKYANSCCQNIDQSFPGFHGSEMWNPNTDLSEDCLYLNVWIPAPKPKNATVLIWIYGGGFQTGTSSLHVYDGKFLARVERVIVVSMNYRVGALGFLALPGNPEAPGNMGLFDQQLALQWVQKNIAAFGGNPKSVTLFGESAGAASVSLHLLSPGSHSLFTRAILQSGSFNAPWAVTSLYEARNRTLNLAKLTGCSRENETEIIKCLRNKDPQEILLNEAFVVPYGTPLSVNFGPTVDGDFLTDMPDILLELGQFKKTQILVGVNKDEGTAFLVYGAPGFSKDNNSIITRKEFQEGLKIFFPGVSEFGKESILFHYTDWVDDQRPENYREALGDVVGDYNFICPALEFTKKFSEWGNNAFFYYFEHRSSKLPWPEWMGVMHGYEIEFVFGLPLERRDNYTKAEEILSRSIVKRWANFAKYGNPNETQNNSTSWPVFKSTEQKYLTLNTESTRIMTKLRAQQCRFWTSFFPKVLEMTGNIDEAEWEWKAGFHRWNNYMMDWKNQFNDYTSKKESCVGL
Description: Inhibition of human serum BuChE using butyrylthiocholine iodide as substrate incubated for 10 mins followed by substrate addition and measured after 10 mins by DTNB reagent based Ellman's method

[1] = Cytotoxicity against rat PC-12 cells assessed as cell viability at 10 uM incubated for 24 hrs by CCK-8 assay relative to control; type: toxicity, cell-based; details: read-out: Activity
BV-2 [2] = test: Cytotoxicity against mouse BV-2 cells assessed as reduction in cell viability at 5 uM incubated for 24 hrs by CCK-8 assay; type: toxicity, cell-based; details: bv-2, 24 h
BV-2 [3] = test: Antineuroinflammatory activity in LPS-induced mouse BV-2 cells assessed as increase in IL-4 level at 1.25 to 5 uM incubated for 24 hrs by ELISA; type: functional, cell-based; details: dose 1.25-5 µM
PC-12 [4] = test: (§1) Neuroprotective activity against H2O2-induced rat PC-12 cells assessed as protection against H2O2-induced apoptosis by measuring live cells at 10 uM pretreated for 1 hr followed by H2O2 addition and measured after 24 hrs by Annexin V-FITC/PI staining based flow cytometry analysis (reference value: 63.2%); type: functional; details: time 25 hrs
PC-12 [5] = test: as §1, with “late apoptotic” for “live”, “7.97%)” for “63.2%)”; type: functional; details: time 25 hrs
PC-12 [6] = test: Inhibition of H2O2 induced ROS production in rat PC-12 cells assessed as reduction in intracellular ROS level at 10 uM pretreated for 1 hr followed by H2O2 stimulation and measured after 24 hrs by confocal microscopic analysis; type: functional, cell-based; details: time 25.0 hrs

Chain of Acetylcholinesterase (P22303 whole entry): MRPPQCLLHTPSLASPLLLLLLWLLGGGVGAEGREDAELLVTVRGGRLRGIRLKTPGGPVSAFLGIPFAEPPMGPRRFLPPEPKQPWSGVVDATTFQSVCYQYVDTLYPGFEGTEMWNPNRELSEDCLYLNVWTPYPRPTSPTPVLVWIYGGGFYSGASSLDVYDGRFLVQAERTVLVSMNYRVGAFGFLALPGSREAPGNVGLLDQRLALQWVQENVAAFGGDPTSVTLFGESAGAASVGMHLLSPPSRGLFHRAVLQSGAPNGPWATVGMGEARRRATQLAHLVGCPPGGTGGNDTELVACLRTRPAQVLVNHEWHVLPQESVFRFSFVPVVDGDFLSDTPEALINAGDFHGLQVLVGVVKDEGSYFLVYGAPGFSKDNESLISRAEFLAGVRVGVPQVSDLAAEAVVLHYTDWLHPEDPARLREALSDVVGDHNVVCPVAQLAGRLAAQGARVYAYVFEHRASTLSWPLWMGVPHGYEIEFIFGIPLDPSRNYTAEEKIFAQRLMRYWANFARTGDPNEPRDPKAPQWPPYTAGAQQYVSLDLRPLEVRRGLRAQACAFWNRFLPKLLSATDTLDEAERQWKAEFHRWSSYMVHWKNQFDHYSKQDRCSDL

SMILES | IC50 (Acetylcholinesterase) [nM] | IC50 (Cholinesterase) [nM] | further results
C[C@@H](c1cccc(OC(=O)NCCCCCCNc2c3c(nc4cc(F)ccc24)CCCC3)c1)N(C)C | 42.2 | 11 | 
O=C(NCCCNc1c2c(nc3ccccc13)CCCC2)Oc1ccc2cc[nH]c2c1 | 552 | 7.23 | 
O=C(NCCCCCCNc1c2c(nc3cc(F)ccc13)CCCC2)Oc1ccc2cc[nH]c2c1 | 297 | 43.1 | 
O=C(NCCCCNc1c2c(nc3ccccc13)CCCC2)Oc1ccc2cc[nH]c2c1 | 510 | 1.35 | 
O=C(NCCCCCCNc1c2c(nc3cc(Br)ccc13)CCCC2)Oc1ccc(-c2cc3cccnc3[nH]2)cc1 | 55 | 556 | 
O=C(NCCNc1c2c(nc3ccccc13)CCCC2)Oc1ccc(-c2cc3cccnc3[nH]2)cc1 | > 10000 | 52.2 | 
O=C(NCCCCCNc1c2c(nc3cc(F)ccc13)CCCC2)Oc1ccc2cc[nH]c2c1 | 273 | 40 | 
O=C(NCCCCCNc1c2c(nc3cc(Cl)ccc13)CCCC2)Oc1ccc2cc[nH]c2c1 | 248 | 48.6 | viability at 24 h, 10 µM [1]: > 90%; Activity (BV-2 [2]): Toxic
O=C(NCCCCCCNc1c2c(nc3cc(Cl)ccc13)CCCC2)Oc1ccc(-c2cc3cccnc3[nH]2)cc1 | 64.7 | 280 | 
O=C(NCCCCCNc1c2c(nc3cc(F)ccc13)CCCC2)Oc1ccc(-c2cc3cccnc3[nH]2)cc1 | 152 | 334 | 
C[C@@H](c1cccc(OC(=O)NCCCCCNc2c3c(nc4ccccc24)CCCC3)c1)N(C)C | 117 | 12 | 
O=C(NCCNc1c2c(nc3ccccc13)CCCC2)Oc1ccc2cc[nH]c2c1 | 1250 | 0.37 | 
C[C@@H](c1cccc(OC(=O)NCCCCCNc2c3c(nc4cc(Cl)ccc24)CCCC3)c1)N(C)C | 8.28 | 26.9 | 
O=C(NCCCCNc1c2c(nc3ccccc13)CCCC2)Oc1ccc(-c2cc3cccnc3[nH]2)cc1 | 205 | 20.5 | viability at 24 h, 10 µM [1]: > 90%; Activity (BV-2 [2]): Non-Toxic; Activity (BV-2 [3]): Active; Activity (PC-12 [4]): 77.2%; Activity (PC-12 [5]): 2.92%; inhibition (PC-12 [6]): Active
O=C(NCCCCCCNc1c2c(nc3ccccc13)CCCC2)Oc1ccc2cc[nH]c2c1 | 382 | 76.5 | 
C[C@@H](c1cccc(OC(=O)NCCNc2c3c(nc4ccccc24)CCCC3)c1)N(C)C | 252 | > 10000 | 
C[C@@H](c1cccc(OC(=O)NCCCCCNc2c3c(nc4cc(F)ccc24)CCCC3)c1)N(C)C | 37.8 | 137 | 
